Test results reported in PMC2909000 (Current topics in medicinal chemistry, 2009).
Like-named read-outs stand apart in the source and are kept apart here.

Key:
[1] = system: zebrafish; conditions: cited from earlier work
[2] = system: human liver cathepsin L; conditions: cited from earlier work
[3] = reaction of 15a in the presence of cysteine, LC/MS monitoring for products; type: physicochemical
[4] = system: Plasmodium falciparum; conditions: read-out: IC50, Plasmodium falciparum; cellular model of infection; ref xl; cited from earlier work
[5] = system: cathepsin B; conditions: relative to cathepsin L
[6] = target: cathepsin L (Homo sapiens, UniProt P07711); type: biochemical; conditions: stoichiometric amounts of enzyme
cathepsin L, sequence (P07711 114-333): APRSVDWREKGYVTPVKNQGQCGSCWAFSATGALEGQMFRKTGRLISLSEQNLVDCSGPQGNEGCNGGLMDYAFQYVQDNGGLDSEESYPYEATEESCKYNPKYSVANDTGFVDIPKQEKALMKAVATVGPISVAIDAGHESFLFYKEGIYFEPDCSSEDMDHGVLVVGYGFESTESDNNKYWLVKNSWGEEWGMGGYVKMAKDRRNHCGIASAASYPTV

[7] = system: Leishmania major; conditions: read-out: IC50, Leishmania major; cellular model of infection; ref xl; cited from earlier work
[8] = system: bovine aortic endothelial cells; conditions: ref xl; cited from earlier work
[9] = system: SARS-CoV; conditions: cited from earlier work
[10] = system: Ebola virus; conditions: cited from earlier work
[11] = system: two component NS2B-NS3 Proteinase of West Nile Virus; conditions: another MLSCN Center; ref xxix, xxx; cited from earlier work

CCc1ccccc1NC(=O)CSC(=O)NNC(=O)[C@H](Cc1c[nH]c2ccccc12)NC(=O)OC(C)(C)C [Compound 15a]
Toxicity (zebrafish) ([1]; ref xl): >100 µM
IC50 ([2]; cathepsin L, no preincubation stated, ref xl): 56 nM
Ki ([2]; cathepsin L, ref xl): 0.89 nM
koff ([2]; cathepsin L, ref xl): 2.2e-05 s⁻¹
IC50 ([2]; read-out: Cathepsin L inhibition IC50, analogs of 15a, ref xlii): 56 nM
IC50 ([2]; read-out: IC50(4h preincubation), cathepsin L, 4h preincubation, ref xl): 1 nM
kinetic characterization of inhibition ([2]; ref xl): slowly reversible inhibition
products detected in the presence of cysteine [3]: no detectable products
IC50 [4]: 15.4 µM
Selectivity vs cathepsin B ([5]; ref xl): 45-fold
products of hydrolysis (20 and 21) detected by LC/MS [6]: No products were detected
IC50 [7]: 12.5 µM
Toxicity (bovine aortic endothelial cells) [8]: 16 µM

CC(C)(C)OC(=O)N[C@@H](Cc1c[nH]c2ccccc12)C(=O)NNC(=O)OCC(=O)N1CCCc2ccccc21 [Compound 19]
toxicity in zebrafish whole organism assay ([1]; no toxicity detected up to this concentration, ref xxx): > 100 µM
IC50 ([2]; read-out: IC50 against cathepsin L with a 4 hour pre-incubation, 4 hour pre-incubation, ref xxx): 0.4 nM
IC50 ([2]; read-out: IC50 against cathepsin L, no pre-incubation, ref xxx): 7 nM
cathepsin L activity of analogs with modified C2 carbonyl reactivity ([2]; ref xxxviii): as potent as the thiocarbazate
concentration preventing entry of SARS-CoV into cells [9]: sub-micromolar
selectivity compared to cathepsin B ([5]; ref xxx): > 700 fold
concentration preventing entry of Ebola virus into cells [10]: sub-micromolar

COc1ccc(S(=O)(=O)n2nc(OC(=O)c3ccccc3)cc2N)cc1 [CID 655490]
mode of inhibition of NS2B-NS3 Proteinase [11]: slow-binding, reversible, non-competitive inhibitor
